Reference: publication PMC6052247, “Structurally Diverse Polyketides From the Mangrove-Derived Fungus Diaporthe sp. SCSIO 41011 With Their Anti-influenza A Virus Activities” (Frontiers in Chemistry, 2018)

These molecules were tested on A/Puerto Rico/8/34 H274Y (H1N1).
Format: cell-based, Influenza A virus
With `CCCCCc1cc(=O)c2c(CC(=O)OC)cc(O)cc2o1` [Compound 14, pestalotiopsone F] the IC50 was 21800 ± 7960 nM.
In the case of 5-chloroisorotiorin, the IC50 is reported as 2520 ± 210 nM.
With `CCCCCCCc1cc(=O)c2c(CC(=O)OCC)cc(O)cc2o1` [Compound 15, pestalotiopsone B] the IC50 was 2560 ± 320 nM.
